Patent US10253049B2, “Boronic acid derivatives” (MERCK PATENT GMBH, priority 2014, dated 2019)

Legend:
[1] = biological target: Beta5 (purified human constitutive proteasome) (Homo sapiens, UniProt P28074); test: Determination of Beta5 activity (fluorescence intensity assay, Suc-LLVY-AMC); type: biochemical
Protocol: Determination of Beta5 Activity
Measurement of Beta5 inhibition is performed in 384 well format based on fluorescence intensity assay.
(§1) Purified human constitutive proteasome (1.25 nM) and serial diluted compounds in DMSO (range of concentrations from 30 μM to 15 pM) or controls are incubated for 20 minutes or 120 minutes (long incubation) at 25° C. in assay buffer containing 50 mM Tris pH 7.4, 0.03% SDS, 1 mM EDTA and 1% DMSO. The reaction is initiated by the addition of the fluorogenic peptide substrate, Suc-LLVY-AMC (Bachem I-1395), at a concentration of 40 μM. After 60 minutes of incubation at 37° C., fluorescence intensity is measured at λex=350 nm and λem=450 nm with a fluorescence reader (Perkin Elmer Envision reader or equivalent).
(§2) Unless indicated otherwise the results are obtained after incubation for 20 minutes.

[2] = biological target: LMP7 (purified human immunoproteasome) (Homo sapiens, UniProt P28062); test: Determination of LMP7 activity (fluorescence intensity assay, Suc-LLVY-AMC); type: biochemical
Protocol: Determination of LMP7 Activity
Measurement of LMP7 inhibition is performed in 384 well format based on fluorescence intensity assay.
as §1, with “immunoproteasome (0.25” for “constitutive proteasome (1.25”
as §2

[3] = biological target: LMP7 subunit of the immunoproteasome (Homo sapiens, UniProt P28062); conditions: Singh et al., Br. J. Hematology 152(2): 155-163; cited from earlier work

Cc1ccc(C[C@H](NC(=O)CCN(c2ccccc2)S(C)(=O)=O)B(O)O)cc1 [Compound No. 3, [(1R)-1-[3-(N-methylsulfonylanilino)propanoylamino]-2-(p-tolyl)ethyl]boronic acid]
IC50 ([1]; incubation for 20 minutes): 50 to 500 nM
Selectivity LMP7 vs Beta5 ([1]; incubation for 20 minutes): +++ (+++: 30 ≤ Selectivity < 50)
IC50 ([2]; incubation for 20 minutes): < 50 nM

CCN(CCC(=O)N[C@@H](Cc1ccc(F)cc1)B(O)O)C(=O)c1ccc(C(F)(F)F)cc1 [Compound No. 27, [(1R)-1-[3-[ethyl-[4-(trifluoromethyl)benzoyl]amino]propanoylamino]-2-(4-fluorophenyl)ethyl]boronic acid]
IC50 ([1]; incubation for 20 minutes): 50 to 500 nM
Selectivity LMP7 vs Beta5 ([1]; incubation for 20 minutes): +++ (+++: 30 ≤ Selectivity < 50)
IC50 ([2]; incubation for 20 minutes): < 50 nM

CCc1cccc(C[C@H](NC(=O)CCCS(C)(=O)=O)B(O)O)c1 [Compound No. 21, [(1R)-2-(3-ethylphenyl)-1-(4-methylsulfonylbutanoylamino)ethyl]-boronic acid]
IC50 ([1]; incubation for 20 minutes): > 5000 nM
Selectivity LMP7 vs Beta5 ([1]; incubation for 20 minutes): +++ (+++: 30 ≤ Selectivity < 50)
IC50 ([2]; incubation for 20 minutes): 50 to 500 nM

CCN(CC(=O)N[C@@H](Cc1coc2c(C)cccc12)B(O)O)S(=O)(=O)c1ccc(C)cc1 [Compound No. 43, [(1R)-1-[[2-[ethyl(p-tolylsulfonyl)amino]acetyl]amino]-2-(7-methylbenzofuran-3-yl)ethyl]boronic acid]
IC50 ([1]; long incubation (120 min)): > 5000 nM
Selectivity LMP7 vs Beta5 ([1]; long incubation (120 min)): +++++ (+++++: Selectivity ≥ 70)
IC50 ([2]; long incubation (120 min)): 50 to 500 nM

CCc1cccc(C[C@H](NC(=O)CCCC(=O)N(C)C)B(O)O)c1 [Compound No. 18, [(1R)-1-[[5-(dimethylamino)-5-oxo-pentanoyl]amino]-2-(3-ethylphenyl)ethyl]boronic acid]
IC50 ([1]; incubation for 20 minutes): > 5000 nM
Selectivity LMP7 vs Beta5 ([1]; incubation for 20 minutes): +++ (+++: 30 ≤ Selectivity < 50)
IC50 ([2]; incubation for 20 minutes): 500 to 5000 nM

CC1=C(C(=O)N[C@H](C)C(=O)N[C@@H](Cc2c[nH]c3ccccc23)C(=O)N[C@@H](Cc2ccccc2)C(=O)[C@@]2(C)CO2)Cc2ccccc21 [PR-924]
selectivity for the LMP7 subunit of the immunoproteasome [3]: 100 fold

CCN(CC(=O)N[C@@H](Cc1ccc(C)cc1C)B(O)O)S(=O)(=O)c1ccccc1C [Compound No. 29, [(1R)-2-(2,4-dimethylphenyl)-1-[[2-[ethyl(o-tolylsulfonyl)amino]acetyl]-amino]ethyl]boronic acid]
IC50 ([1]; incubation for 20 minutes): 500 to 5000 nM
Selectivity LMP7 vs Beta5 ([1]; incubation for 20 minutes): +++++ (+++++: Selectivity ≥ 70)
IC50 ([2]; incubation for 20 minutes): < 50 nM

CCN(CCC(=O)N[C@@H](Cc1ccccc1)B(O)O)C(=O)c1ccc(C)cc1 [Compound No. 14, [(1R)-1-[3-[ethyl-(4-methylbenzoyl)amino]propanoylamino]-2-phenyl-ethyl]boronic acid]
IC50 ([1]; incubation for 20 minutes): 500 to 5000 nM
Selectivity LMP7 vs Beta5 ([1]; incubation for 20 minutes): +++ (+++: 30 ≤ Selectivity < 50)
IC50 ([2]; incubation for 20 minutes): < 50 nM

Cc1ccc(S(=O)(=O)N(CC(=O)N[C@@H](Cc2ccc(C)cc2C)B(O)O)C(C)C)cc1 [Compound No. 33, [(1R)-2-(2,4-dimethylphenyl)-1-[[2-[isopropyl(p-tolylsulfonyl)amino]-acetyl]amino]ethyl]boronic acid]
IC50 ([1]; incubation for 20 minutes): 500 to 5000 nM
Selectivity LMP7 vs Beta5 ([1]; incubation for 20 minutes): +++++ (+++++: Selectivity ≥ 70)
IC50 ([2]; incubation for 20 minutes): < 50 nM

O=C(CCS(=O)(=O)c1ccccc1)N[C@@H](Cc1coc2ccccc12)B(O)O [Compound No. 4, [(1R)-1-[3-(benzenesulfonyl)propanoylamino]-2-(benzofuran-3-yl)ethyl]boronic acid]
IC50 ([1]; incubation for 20 minutes): < 50 nM
Selectivity LMP7 vs Beta5 ([1]; incubation for 20 minutes): +++ (+++: 30 ≤ Selectivity < 50)
IC50 ([2]; incubation for 20 minutes): < 50 nM

CCN(CCC(=O)N[C@@H](Cc1ccccc1)B(O)O)C(=O)c1ccccc1 [Compound No. 8, [(1R)-1-[3-[benzoyl(ethyl)amino]propanoylamino]-2-phenyl-ethyl]boronic acid]
IC50 ([1]; incubation for 20 minutes): 500 to 5000 nM
Selectivity LMP7 vs Beta5 ([1]; incubation for 20 minutes): +++ (+++: 30 ≤ Selectivity < 50)
IC50 ([2]; incubation for 20 minutes): 50 to 500 nM

CCC(=O)N(CC(=O)N[C@@H](Cc1ccsc1)B(O)O)c1ccccc1F [Compound No. 39, [(1R)-1-[[2-(2-fluoro-N-propanoyl-anilino)acetyl]amino]-2-(3-thienyl)ethyl]boronic acid]
IC50 ([1]; incubation for 20 minutes): > 5000 nM
Selectivity LMP7 vs Beta5 ([1]; incubation for 20 minutes): +++ (+++: 30 ≤ Selectivity < 50)
IC50 ([2]; incubation for 20 minutes): 500 to 5000 nM

CCN(CC(=O)N[C@@H](Cc1ccc(C)cc1C)B(O)O)S(=O)(=O)c1cccc(C)c1 [Compound No. 31, [(1R)-2-(2,4-dimethylphenyl)-1-[[2-[ethyl(m-tolylsulfonyl)amino]-acetyl]amino]ethyl]boronic acid]
IC50 ([1]; incubation for 20 minutes): 50 to 500 nM
Selectivity LMP7 vs Beta5 ([1]; incubation for 20 minutes): ++++ (++++: 50 ≤ Selectivity < 70)
IC50 ([2]; incubation for 20 minutes): < 50 nM

CCN(CC(=O)N[C@@H](Cc1ccc(C)cc1C)B(O)O)C(=O)CSC [Compound No. 36, [(1R)-2-(2,4-dimethylphenyl)-1-[[2-[ethyl-(2-methylsulfanylacetyl)-amino]acetyl]amino]ethyl]boronic acid]
IC50 ([1]; incubation for 20 minutes): > 5000 nM
Selectivity LMP7 vs Beta5 ([1]; incubation for 20 minutes): ++++ (++++: 50 ≤ Selectivity < 70)
IC50 ([2]; incubation for 20 minutes): 50 to 500 nM

CCN(CC(=O)N[C@@H](Cc1ccc(C)cc1C)B(O)O)C(=O)CCl [Compound No. 37, [(1R)-1-[[2-[(2-chloroacetyl)-ethyl-amino]acetyl]amino]-2-(2,4-dimethylphenyl)ethyl]boronic acid]
IC50 ([1]; incubation for 20 minutes): > 5000 nM
Selectivity LMP7 vs Beta5 ([1]; incubation for 20 minutes): +++ (+++: 30 ≤ Selectivity < 50)
IC50 ([2]; incubation for 20 minutes): 50 to 500 nM
